From PubChem BioAssay AID2060499 (Molecular Pharmacology Branch, DTP, NCI, 2025)

System: 777334-354-R2-J4-PDC tumor spheroids with HUVEC/MSC, viability
Experiment: Anticancer human tumor 777334-354-R2-J4-PDC patient-derived pancreatic adenocarcinoma cell line growth inhibition [GQUAD]
Conditions: for IC50: curve of first compound; for viability, T/C: stronger effect = lower value
In short: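 Viability of tumor cells grown as complex spheroids with endothelial and stromal cells, exposed to drug combinations. Top concentration at or near clinical Cmax (else 10 microM), diluted in half-log increments.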

[1] = second compound 0.0316 µM, first compound 0.0316 µM
[2] = second compound 0.0316 µM, first compound 0.1 µM
[3] = second compound 0.0316 µM, first compound 0.316 µM
[4] = second compound 0.0316 µM, first compound 1 µM
[5] = second compound 0.0316 µM, first compound 3.16 µM
[6] = second compound 0.0316 µM, first compound 10 µM
[7] = second compound 0.1 µM, first compound 0.0316 µM
[8] = second compound 0.1 µM, first compound 0.1 µM
[9] = second compound 0.1 µM, first compound 0.316 µM
[10] = second compound 0.1 µM, first compound 1 µM
[11] = second compound 0.1 µM, first compound 3.16 µM
[12] = second compound 0.1 µM, first compound 10 µM
[13] = second compound 0.316 µM, first compound 0.0316 µM
[14] = second compound 0.316 µM, first compound 0.1 µM
[15] = second compound 0.316 µM, first compound 0.316 µM
[16] = second compound 0.316 µM, first compound 1 µM
[17] = second compound 0.316 µM, first compound 3.16 µM
[18] = second compound 0.316 µM, first compound 10 µM
[19] = second compound 1 µM, first compound 0.0316 µM
[20] = second compound 1 µM, first compound 0.1 µM
[21] = second compound 1 µM, first compound 0.316 µM
[22] = second compound 1 µM, first compound 1 µM
[23] = second compound 1 µM, first compound 3.16 µM
[24] = second compound 1 µM, first compound 10 µM
[25] = second compound 3.16 µM, first compound 0.0316 µM
[26] = second compound 3.16 µM, first compound 0.1 µM
[27] = second compound 3.16 µM, first compound 0.316 µM
[28] = second compound 3.16 µM, first compound 1 µM
[29] = second compound 3.16 µM, first compound 3.16 µM
[30] = second compound 3.16 µM, first compound 10 µM
[31] = second compound 10 µM, first compound 0.0316 µM
[32] = second compound 10 µM, first compound 0.1 µM
[33] = second compound 10 µM, first compound 0.316 µM
[34] = second compound 10 µM, first compound 1 µM
[35] = second compound 10 µM, first compound 3.16 µM
[36] = second compound 10 µM, first compound 10 µM
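Note: spheroids exposed to compounds for 7 days before readout.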

COc1ncnc(C2CC2)c1-c1ncc2cnn(Cc3ccc(-c4nc(C(F)(F)F)cn4C(C)C)cc3)c2n1 + CN(C)c1ccc(Nc2c3ccc(NC(=O)CCN4CCCC4)cc3nc3cc(NC(=O)CCN4CCCC4)ccc23)cc1
IC50 (second compound 0.0316 µM): > 10 µM
IC50 (second compound 0.1 µM): > 10 µM
IC50 (second compound 0.316 µM): > 10 µM
IC50 (second compound 1 µM): > 10 µM
IC50 (second compound 3.16 µM): > 10 µM
IC50 (second compound 10 µM): > 10 µM
viability, T/C [1]: 103%
viability, T/C [2]: 94.8%
viability, T/C [3]: 108%
viability, T/C [4]: 95.7%
viability, T/C [5]: 105%
viability, T/C [6]: 111%
viability, T/C [7]: 104%
viability, T/C [8]: 91.1%
viability, T/C [9]: 94.4%
viability, T/C [10]: 84.5%
viability, T/C [11]: 100%
viability, T/C [12]: 98.3%
viability, T/C [13]: 97.7%
viability, T/C [14]: 94.5%
viability, T/C [15]: 94%
viability, T/C [16]: 95%
viability, T/C [17]: 109%
viability, T/C [18]: 105%
viability, T/C [19]: 96.2%
viability, T/C [20]: 101%
viability, T/C [21]: 94.5%
viability, T/C [22]: 93.8%
viability, T/C [23]: 106%
viability, T/C [24]: 96.8%
viability, T/C [25]: 84.1%
viability, T/C [26]: 85.1%
viability, T/C [27]: 92.6%
viability, T/C [28]: 94.2%
viability, T/C [29]: 97.2%
viability, T/C [30]: 91.9%
viability, T/C [31]: 81.2%
viability, T/C [32]: 73.5%
viability, T/C [33]: 80.1%
viability, T/C [34]: 75.6%
viability, T/C [35]: 70.6%
viability, T/C [36]: 58.4%

CC1COCCN1c1cc(-c2ccnn2C)c2ccnc(-c3ccn[nH]3)c2n1 (stereo not given) + Cc1[nH]c2ccc(F)cc2c1-c1nc2c3cccnc3c3ncccc3c2[nH]1
IC50 (second compound 0.0316 µM): 0.894 µM
IC50 (second compound 0.1 µM): 0.834 µM
IC50 (second compound 0.316 µM): 0.483 µM
IC50 (second compound 1 µM): 0.479 µM
IC50 (second compound 3.16 µM): < 0.0316 µM
IC50 (second compound 10 µM): < 0.0316 µM
viability, T/C [1]: 91.3%
viability, T/C [2]: 74.2%
viability, T/C [3]: 62.4%
viability, T/C [4]: 44.4%
viability, T/C [5]: 44%
viability, T/C [6]: 31.1%
viability, T/C [7]: 93.7%
viability, T/C [8]: 67.1%
viability, T/C [9]: 63.5%
viability, T/C [10]: 46.4%
viability, T/C [11]: 41.5%
viability, T/C [12]: 29.4%
viability, T/C [13]: 90.9%
viability, T/C [14]: 79.6%
viability, T/C [15]: 48.7%
viability, T/C [16]: 46.6%
viability, T/C [17]: 39.5%
viability, T/C [18]: 29.7%
viability, T/C [19]: 68.7%
viability, T/C [20]: 65.2%
viability, T/C [21]: 53.2%
viability, T/C [22]: 39.9%
viability, T/C [23]: 35.6%
viability, T/C [24]: 19.1%
viability, T/C [25]: 26.4%
viability, T/C [26]: 23.9%
viability, T/C [27]: 18.9%
viability, T/C [28]: 11.1%
viability, T/C [29]: 8.41%
viability, T/C [30]: 8.24%
viability, T/C [31]: 33.5%
viability, T/C [32]: 19.5%
viability, T/C [33]: 14.9%
viability, T/C [34]: 11.7%
viability, T/C [35]: 12.7%
viability, T/C [36]: 11.6%

CC1COCCN1c1cc(C2(O)CC3CCC(C2)O3)c2cnn(-c3ccn[nH]3)c2n1 (stereo not given) + Cc1[nH]c2ccc(F)cc2c1-c1nc2c3cccnc3c3ncccc3c2[nH]1
IC50 (second compound 0.0316 µM): 0.302 µM
IC50 (second compound 0.1 µM): 0.364 µM
IC50 (second compound 0.316 µM): 0.384 µM
IC50 (second compound 1 µM): 0.186 µM
IC50 (second compound 3.16 µM): < 0.0316 µM
IC50 (second compound 10 µM): < 0.0316 µM
viability, T/C [1]: 93.8%
viability, T/C [2]: 59.3%
viability, T/C [3]: 52.8%
viability, T/C [4]: 38.3%
viability, T/C [5]: 33.2%
viability, T/C [6]: 19%
viability, T/C [7]: 98.7%
viability, T/C [8]: 66.1%
viability, T/C [9]: 56%
viability, T/C [10]: 36.5%
viability, T/C [11]: 31.9%
viability, T/C [12]: 23%
viability, T/C [13]: 84.6%
viability, T/C [14]: 67.1%
viability, T/C [15]: 50.6%
viability, T/C [16]: 39.8%
viability, T/C [17]: 31.4%
viability, T/C [18]: 20.8%
viability, T/C [19]: 66.8%
viability, T/C [20]: 56%
viability, T/C [21]: 44.9%
viability, T/C [22]: 31.6%
viability, T/C [23]: 21.3%
viability, T/C [24]: 16.9%
viability, T/C [25]: 25.2%
viability, T/C [26]: 18.8%
viability, T/C [27]: 11.6%
viability, T/C [28]: 8.38%
viability, T/C [29]: 6.83%
viability, T/C [30]: 4.02%
viability, T/C [31]: 21.8%
viability, T/C [32]: 16.9%
viability, T/C [33]: 12.8%
viability, T/C [34]: 7.12%
viability, T/C [35]: 7.7%
viability, T/C [36]: 4.01%

CC1COCCN1c1cc(C2(S(C)(=N)=O)CC2)nc(-c2ccnc3[nH]ccc23)n1 (stereo not given) + Cc1[nH]c2ccc(F)cc2c1-c1nc2c3cccnc3c3ncccc3c2[nH]1
IC50 (second compound 0.0316 µM): > 10 µM
IC50 (second compound 0.1 µM): > 10 µM
IC50 (second compound 0.316 µM): > 10 µM
IC50 (second compound 1 µM): 7.07 µM
IC50 (second compound 3.16 µM): < 0.0316 µM
IC50 (second compound 10 µM): < 0.0316 µM
viability, T/C [1]: 109%
viability, T/C [2]: 98.9%
viability, T/C [3]: 108%
viability, T/C [4]: 100%
viability, T/C [5]: 87.7%
viability, T/C [6]: 62.2%
viability, T/C [7]: 113%
viability, T/C [8]: 92.7%
viability, T/C [9]: 118%
viability, T/C [10]: 85.8%
viability, T/C [11]: 94.5%
viability, T/C [12]: 74.8%
viability, T/C [13]: 94.8%
viability, T/C [14]: 97.7%
viability, T/C [15]: 88.3%
viability, T/C [16]: 96.2%
viability, T/C [17]: 89.9%
viability, T/C [18]: 56%
viability, T/C [19]: 88.7%
viability, T/C [20]: 93.8%
viability, T/C [21]: 87.1%
viability, T/C [22]: 75.5%
viability, T/C [23]: 67.9%
viability, T/C [24]: 42.7%
viability, T/C [25]: 41.8%
viability, T/C [26]: 27.1%
viability, T/C [27]: 35%
viability, T/C [28]: 22.8%
viability, T/C [29]: 25.8%
viability, T/C [30]: 12%
viability, T/C [31]: 36%
viability, T/C [32]: 29.2%
viability, T/C [33]: 29.6%
viability, T/C [34]: 18.9%
viability, T/C [35]: 20.7%
viability, T/C [36]: 11.1%

COc1ccc([C@@H](O)c2cc(-c3ncnc4cc(N5CCOCC5)ccc34)c(F)cc2Cl)nn1 + Cc1[nH]c2ccc(F)cc2c1-c1nc2c3cccnc3c3ncccc3c2[nH]1
IC50 (second compound 0.0316 µM): 3.89 µM
IC50 (second compound 0.1 µM): 3.88 µM
IC50 (second compound 0.316 µM): 3.44 µM
IC50 (second compound 1 µM): 1.89 µM
IC50 (second compound 3.16 µM): < 0.0316 µM
IC50 (second compound 10 µM): < 0.0316 µM
viability, T/C [1]: 102%
viability, T/C [2]: 91%
viability, T/C [3]: 95%
viability, T/C [4]: 76%
viability, T/C [5]: 54.5%
viability, T/C [6]: 30.3%
viability, T/C [7]: 110%
viability, T/C [8]: 98.8%
viability, T/C [9]: 93%
viability, T/C [10]: 71%
viability, T/C [11]: 55.4%
viability, T/C [12]: 30.5%
viability, T/C [13]: 92.8%
viability, T/C [14]: 92.9%
viability, T/C [15]: 88.2%
viability, T/C [16]: 80.3%
viability, T/C [17]: 51.4%
viability, T/C [18]: 28.9%
viability, T/C [19]: 79.9%
viability, T/C [20]: 89.9%
viability, T/C [21]: 76.8%
viability, T/C [22]: 61.8%
viability, T/C [23]: 40.6%
viability, T/C [24]: 22.2%
viability, T/C [25]: 46.1%
viability, T/C [26]: 43.4%
viability, T/C [27]: 36.7%
viability, T/C [28]: 17.7%
viability, T/C [29]: 13.6%
viability, T/C [30]: 9.99%
viability, T/C [31]: 35.4%
viability, T/C [32]: 29.1%
viability, T/C [33]: 27.8%
viability, T/C [34]: 15.2%
viability, T/C [35]: 13%
viability, T/C [36]: 12.6%
